12 compounds from patent US11021481B2, “Substituted isoindolin-1-ones and 2,3-dihydro-1h-pyrrolo[3,4-c]pyridin-1-ones as HPK1 antagonists” (Nimbus Saturn, Inc., priority 2019, dated 2021) can be followed below.

The term IC50 denotes the concentration needed to halve the response being measured.

Where only a bound is given, the exact number is not on record here.

Chain of HPK1 (Q92918 whole entry): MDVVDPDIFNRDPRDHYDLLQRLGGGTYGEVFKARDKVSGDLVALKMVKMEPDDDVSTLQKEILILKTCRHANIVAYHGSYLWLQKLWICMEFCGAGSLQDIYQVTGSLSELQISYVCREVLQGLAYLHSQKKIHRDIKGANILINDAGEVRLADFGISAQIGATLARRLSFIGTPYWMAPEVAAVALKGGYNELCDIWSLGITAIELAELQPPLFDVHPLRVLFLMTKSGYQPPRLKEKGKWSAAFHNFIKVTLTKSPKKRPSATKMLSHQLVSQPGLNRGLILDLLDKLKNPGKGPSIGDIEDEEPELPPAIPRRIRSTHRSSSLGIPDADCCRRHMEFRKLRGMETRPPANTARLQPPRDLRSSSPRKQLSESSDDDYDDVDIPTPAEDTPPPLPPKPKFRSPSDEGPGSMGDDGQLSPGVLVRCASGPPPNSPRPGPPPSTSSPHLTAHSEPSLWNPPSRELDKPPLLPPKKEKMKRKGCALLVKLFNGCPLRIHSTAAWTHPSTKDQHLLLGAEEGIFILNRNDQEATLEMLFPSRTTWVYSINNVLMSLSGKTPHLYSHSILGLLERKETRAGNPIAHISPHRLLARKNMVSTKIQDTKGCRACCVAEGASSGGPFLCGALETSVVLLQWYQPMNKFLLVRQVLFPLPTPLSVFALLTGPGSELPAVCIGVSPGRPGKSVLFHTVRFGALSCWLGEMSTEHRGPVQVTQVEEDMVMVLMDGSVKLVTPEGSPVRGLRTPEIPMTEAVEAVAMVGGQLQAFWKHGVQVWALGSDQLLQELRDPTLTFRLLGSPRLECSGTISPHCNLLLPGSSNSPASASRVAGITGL

The assay deals with HPK1 (Homo sapiens (Human), UniProt Q92918). Kind of assay: HPK1 biochemical enzyme assay (microfluidic mobility shift assay). Conditions: 1.5 nM HPK1, ATP 1 mM final, 30 min preincubation, 60 min at RT, Caliper EZ Reader; read-out: HPK1 1000UMATP caliper IC50. The essentials:
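Mobility shift readout of HPK1 activity after a 60 min RT reaction with 1 mM ATP, 1 μM substrate and 5 mM MgCl2. Enzyme/substrate mix was first exposed to compounds for 30 min, using ten-point curves topping at 3 μM final.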
Turning to `O=C1NCc2c(-c3cnc4cc(F)ccn34)ccc(Nc3ccc(N4CCC(CO)CC4)cn3)c21` [I-204, 4-(7-fluoroimidazo [1,2-a]pyridin-3-yl)-7-[[5-[4-(hydroxymeth-yl]-1-piperipyl]-2-pyripyl]-amino]isoin-dolin-1-one], the IC50 was less than 100 nM.

As to `C[C@@H](c1ccc(Nc2ccc(-c3cnc4cc(F)ccn34)c3c2C(=O)NC3)nc1)N1CCC(O)CC1` [I-526, (S)-4-(7-fluoroimidazo [1,2-a]pyridin-3-yl)-7-((5-(l-(4-hydroxypiperidin-1-yl)ethyl)pyridin-2-yl)amino)isoin-dolin-1-one], the IC50 was less than 100 nM.

As for `N#Cc1ccn2c(-c3ccc(Nc4ccc(N5CCC(O)CC5)cn4)c4c3CNC4=O)cnc2c1F` [I-188, 8-fluoro-3-[7-[[5-(4-hydroxy-1-piperidyl)-2-pyridyl]amino]-1-oxo-isoindolin-4-yl]imidazo[1,2-a]pyridine-7-carbonitrile], the IC50 was less than 100 nM.

As for `CN1C[C@H](c2ccc(Nc3ccc(-c4cnc5cnccn45)c4c3C(=O)NC4)nc2)CCC1=O` [I-326, (S)-4-(imidazo[1,2-a]pyrazin-3-yl)-7-((5-(1-methyl-6-oxopiperidin-3-yl)pyridin-2-yl)amino)isoin-dolin-1-one], the IC50 was less than 100 nM.

On to `Cn1ccc2c(-c3ncc(Nc4ccc(N5CCC[C@@H](C(C)(C)O)C5)cn4)c4c3CNC4=O)cccc21` [I-223, 7-[[5-[(3R)-3-(1-hydroxy-1-methyl-ethyl)-1-piperipyl]-2-pyridyl]-amino]-4-(1-methylindol-4-yl)-2,3-dihydropyrrolo [3,4-c]pyridin-1-one], for which the IC50 was less than 100 nM.

Regarding `CN1CCN(c2ccc(Nc3cnc(-c4cnn5c4CCCC5)c4c3C(=O)NC4)nc2)CC1` [I-255, 7-((5-(4-methylpiperazin-1-yl)pyridin-2-yl)amino)-4-(4,5,6,7-tetrahydropyra-zolo[1,5-a]pyridin-3-yl)-2,3-dihydro-1H-pyrrolo[3,4-c]pyridin-1-one], the IC50 is less than 100 nM.

For the compound `CN(C)C(C)(C)[C@@]1(O)CCCN(c2ccc(Nc3ccc(-c4cnc5cc(F)ccn45)c4c3C(=O)NC4)nc2)C1` [I-716, (R)-7-((5-(3-(2-(dimethylainino)propan-2-yl)-3-hydroxy-piperidin-1-yl)pyridin-2-yl)amino)-4-(7-fluoroimidazo [1,2-a]pyridin-3-yl)isoindolin-1-one], the IC50 is less than 100 nM.

As for `O=C1NCc2c(-c3cnc4cc(F)ccn34)ccc(Nc3ccc(N4CCC[C@]5(CNCCO5)C4)cn3)c21` [I-508, (S)-7-((5-(1-oxa-4.8-diazaspiro[5.5]undecan-8-yl)pyridin-2-yl)amino)-4-(7-fluoroimidazo [1,2-a]pyridin-3-yl)isoindolin-1-one], the IC50 is less than 100 nM.

Consider `COCC1CN(c2ccc(Nc3ccc(-c4ncnc5c4ccn5C)c4c3C(=O)NC4)nc2)CCO1` (stereo in doubt) [I-649, (R)-7-((5-(2-(methylmeth-yl)morpho-lino)pyridin-2-yl)amino)-4-(7-methyl-7]-4-pyrrolo[2,3-d]pyrimidin-4-yl)isoindolin-1-one], for which the IC50 is less than 100 nM.

With `Cc1cccc2c(-c3ccc(Nc4ccc(N5CCN(C)CC5)cn4)c4c3CNC4=O)cnn12` [I-69, 7-[[5-(4-methylpiperazin-1-yl)-2-pyridyl]amino]-4-(7-methylpyrazolo [1,5-a]pyridin-3-yl)isoindolin-1-one], the IC50 was less than 100 nM.

For the compound `C[C@@H](c1ccc(Nc2ccc(-c3cnc4cc(F)ccn34)c3c2C(=O)NC3)nc1)N1CCOCC1` (single isomer, unassigned) [I-640], the IC50 is less than 100 nM.

`CN1CCC(O)(c2ccc(Nc3ccc(-c4ccnc5c4ccn5C)c4c3C(=O)NC4)nc2)CC1` [I-274, 7-((5-(4-hydroxy-1-methylpiperidin-4-yl)pyridin-2-yl)amino)-4-(1-methyl-1H-pyrrolo[2,3-b]pyridin-4-yl)isoindolin-1-one]: the IC50 was less than 100 nM.
